These results are taken from patent US12503439B2, “Heteroaryl compounds for the treatment of pain” (VERTEX PHARMACEUTICALS INCORPORATED, priority 2022, dated 2025).

This assay addresses truncated form of human NaV 1.8 with full channel activity (expressed in HEK cells) (Homo sapiens, UniProt Q9Y5Y9). Kind of assay: E-VIPR assay detecting and measuring NaV inhibition properties (electrical stimulation, membrane potential FRET dyes). Format: cell-based. The settings on record: HEK cells expressing truncated human NaV 1.8, KIR2.1 BacMam; 11-point dose response; 30 min compound incubation; stimulation 10 Hz for 10 s; read-out: measured IC50 value in the E-VIPR Assay. From the text:
E-VIPR Assay Detecting and Measuring NaV Inhibition Properties
Sodium ion channels are voltage-dependent proteins that can be activated by inducing membrane voltage changes by applying electric fields. […] The instrument comprises a microtiter plate handler, an optical system for exciting the coumarin dye while simultaneously recording the coumarin and oxonol emissions, a waveform generator, a current- or voltage-controlled amplifier, and parallel electrode pairs that are inserted into assay plate wells. Under integrated computer control, this instrument passes user-programmed electrical stimulus protocols to cells within the wells of the microtiter plate.
16-20 hours prior to running the assay on E-VIPR, HEK cells expressing a truncated form of human NaV 1.8 with full channel activity were seeded into microtiter 384-well plates, pre-coated with matrigel, at a density of 25,000 cells per well. 2.5-5% KIR2.1 BacMam virus was added to the final cell suspension before seeding into cell plates. […] Cells were expanded in 5-layer CellSTACK culture chambers or cell culture flasks with vented caps, with 90-95% humidity and 5% CO2.
Reagents and Stock Solutions:
The concentration used can be dependent on viral titer of each batch.
Human Serum (HS, Millipore #S1P1-01KL, or Sigma SLBR5469V and SLBR5470V as a 50%/50% mixture, for 25% assay final concentration)
Hexyl Dye Solution (2× Concentration):
Bath 1 Buffer containing 0.5% β-cyclodextrin (made fresh prior to each use, Sigma #C4767), 8 μM CC2-DMPE and 2 μM DiSBAC6(3). The solution was made by adding 10% Pluronic F127 stock equal to combined volumes of CC2-DMPE and DiSBAC6(3). The order of preparation was first mix Pluronic and CC2-DMPE, then add DiSBAC6(3), then while vortexing add Bath 1/β-Cyclodextrin.
Assay Protocol (7 Key Steps):
The compound plate was backfilled with 45 μL per well of Compound Loading Buffer resulting in a 240-fold dilution of compound following a 1:1 transfer of compound into the cell plate (see Step 6). […] This assay dilution protocol was adjusted to enable a higher dose range to be tested in the presence of HS or if the final assay volume was altered. • 2) Hexyl Dye Solution was prepared. • 3) Cell plates were prepared. On the day of the assay, the media was aspirated, and the cells were washed three times with 80 μL of Bath-1 buffer, maintaining 25 μL residual volume in each well. • 4) 25 μL per well of Hexyl Dye Solution was dispensed into the cell plates. The cells were incubated for 20 minutes at room temperature or ambient conditions in darkness. • 5) 45 μL per well of Compound Loading Buffer was dispensed into compound plates. • 6) The cell plates were washed three times with 80 μL per well of Bath-1 Buffer, leaving […] of residual volume. Then 25 μL per well from compound plate was transferred to each cell plate. The mixture was incubated for 30 minutes at room temperature/ambient conditions. • 7) The cell plate containing compound was read on E-VIPR using the current-controlled amplifier to deliver stimulation wave pulses using a symmetrical biphasic waveform. […] A pre-stimulus recording was performed for each well for 0.5 seconds to obtain the un-stimulated intensities baseline. The stimulatory waveform was followed by 0.5 seconds of post-stimulation recording to examine the relaxation to the resting state. All E-VIPR responses were measured at 200 Hz acquisition rate. Data Analysis:
The response as a function of time was reported as the ratios obtained using the following formula: […]
The data were normalized by calculating the initial (Ri) and final (Rf) ratios. These were the average ratio values during part or all of the pre-stimulation period and during sample points during the stimulation period. The fluorescence ratio (Rf/Ri) was then calculated and reported as a function of time.
Control responses were obtained by performing assays in the presence of the positive control, and in the absence of pharmacological agents (DMSO vehicle negative control).

Sequence of truncated form of human NaV 1.8 with full channel activity (expressed in HEK cells) (Q9Y5Y9 126-1722 limits assumed): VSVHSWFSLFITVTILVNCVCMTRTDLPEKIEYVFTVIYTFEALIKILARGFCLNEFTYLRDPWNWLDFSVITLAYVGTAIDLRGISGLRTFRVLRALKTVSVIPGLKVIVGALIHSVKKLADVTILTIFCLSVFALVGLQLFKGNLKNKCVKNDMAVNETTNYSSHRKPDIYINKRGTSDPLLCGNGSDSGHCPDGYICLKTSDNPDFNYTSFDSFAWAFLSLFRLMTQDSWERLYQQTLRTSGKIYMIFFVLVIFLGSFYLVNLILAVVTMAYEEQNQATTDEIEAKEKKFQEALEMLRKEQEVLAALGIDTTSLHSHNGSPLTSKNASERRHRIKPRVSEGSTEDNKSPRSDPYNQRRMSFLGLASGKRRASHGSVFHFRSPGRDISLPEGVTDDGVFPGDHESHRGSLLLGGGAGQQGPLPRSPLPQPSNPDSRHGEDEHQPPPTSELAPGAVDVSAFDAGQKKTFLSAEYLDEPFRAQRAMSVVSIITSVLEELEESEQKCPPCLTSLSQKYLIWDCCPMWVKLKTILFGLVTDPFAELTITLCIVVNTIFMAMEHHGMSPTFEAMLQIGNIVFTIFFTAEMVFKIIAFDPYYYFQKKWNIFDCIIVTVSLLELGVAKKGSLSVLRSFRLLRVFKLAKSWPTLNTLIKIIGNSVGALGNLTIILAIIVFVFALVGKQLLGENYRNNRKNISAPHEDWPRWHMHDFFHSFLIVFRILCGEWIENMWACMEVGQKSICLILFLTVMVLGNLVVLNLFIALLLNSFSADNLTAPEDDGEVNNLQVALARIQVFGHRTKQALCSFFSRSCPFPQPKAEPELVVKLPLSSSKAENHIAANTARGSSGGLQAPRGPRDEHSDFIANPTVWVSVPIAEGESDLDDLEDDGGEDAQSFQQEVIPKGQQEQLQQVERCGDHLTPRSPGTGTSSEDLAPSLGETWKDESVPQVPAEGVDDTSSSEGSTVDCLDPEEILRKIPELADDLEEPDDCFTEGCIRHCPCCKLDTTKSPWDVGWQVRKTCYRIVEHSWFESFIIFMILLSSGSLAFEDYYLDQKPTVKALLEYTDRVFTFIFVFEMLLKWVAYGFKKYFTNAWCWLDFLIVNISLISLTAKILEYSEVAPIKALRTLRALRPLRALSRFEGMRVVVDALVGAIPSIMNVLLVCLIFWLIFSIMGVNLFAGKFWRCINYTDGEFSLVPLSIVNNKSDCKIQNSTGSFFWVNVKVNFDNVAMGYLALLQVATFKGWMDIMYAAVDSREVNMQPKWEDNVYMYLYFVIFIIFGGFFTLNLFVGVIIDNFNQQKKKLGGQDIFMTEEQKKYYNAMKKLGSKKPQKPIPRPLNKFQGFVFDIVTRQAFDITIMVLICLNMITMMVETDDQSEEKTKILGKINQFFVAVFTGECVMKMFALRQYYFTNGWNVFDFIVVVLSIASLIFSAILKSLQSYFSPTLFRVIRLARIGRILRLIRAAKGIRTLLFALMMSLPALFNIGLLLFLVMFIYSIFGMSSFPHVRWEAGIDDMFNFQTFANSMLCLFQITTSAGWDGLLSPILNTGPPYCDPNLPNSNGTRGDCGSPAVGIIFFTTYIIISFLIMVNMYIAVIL

For the molecule `COc1cc(F)ccc1Oc1cc(C(C)(C)C)cc(C)c1-c1[nH]c2ccccc2c(=O)c1C` (single isomer, unassigned) [Compound 334, 2-[4-tert-butyl-2-(4-fluoro-2-methoxy-phenoxy)-6-methyl-phenyl]-3-methyl-1H-quinolin-4-one], the IC50 was in the range of 2000 to 5000 nM.

`Cc1c(Oc2ncc(C(F)(F)F)c(C)c2-c2cc(=O)c3c(N4CC(O)C4)nccc3[nH]2)ccc(F)c1F` [Compound 179, 2-[2-(3,4-difluoro-2-methyl-phenoxy)-4-methyl-5-(trifluoromethyl)-3-pyridyl]-5-(3-hydroxyazetidin-1-yl)-1H-1,6-naphthyridin-4-one]: the IC50 is 500 to 2000 nM.
